# Results as given in US7977308B2, “Lys-Thr dipeptides and their use” (Sederma, priority 2005, dated 2011).
# Where no end group is shown, it is not given here. The star is where a group is joined. Palmitoyl = CCCCCCCCCCCCCCCC(=O)*
# How the values were obtained:
# Format in all cases: cell-based
# [1] = tested on: Normal Human Dermal Fibroblasts (NHDF); assay: Survival estimated on cell layer using fluorescent probe Hoescht 33258; conditions: for cell proliferation / number of cells: after 3 days of culture
# Protocol: (§1) Normal Human Dermal Fibroblasts (NHDF) were cultivated in culture plates in an appropriate culture medium (i.e. complete DMEM with fetal calf serum). After cell anchorage, cell layers (n=5 replicates) were rinsed with saline buffer and contact with molecules to be tested were performed in a complete DMEM without fetal calf serum. This medium contained ascorbate (sodium salt) and beta-aminopropionitrile, monofumarate. Two independent experimentations were performed for each di-peptide.
# (§2) After 3 days of incubation, supernatants were collected and frozen. Survival was estimated on cell layer using the fluorescent probe Hoescht 33258. Collagen I was estimated using an original direct ELISA method. Fibronectin was estimated using ELISA commercial kit.
# [2] = tested on: Normal Human Dermal Fibroblasts (NHDF); assay: Quantification of Collagen I synthesis using human dermal fibroblasts (direct ELISA); conditions: 3 days of incubation
# Protocol: (§3) Products were tested from 0.5 to 4 ppm depending of their solubility or toxicity. Pal-KTTKS was tested from 2 to 8 ppm.
# (§4) Pal KTTKS (Lys-Thr-Thr-Lys-Ser), Pal KT (Lys-Thr), Pal KS (Lys-Ser) were prepared in Sederma Peptide Synthesis Laboratory. TGF-betal: 10^E-6%, was the positive control for collagen I and Fibronectin studies.
# (§5) For this study, di-peptides were linked to the Palmitoic acid and were compared to Pal-KTTKS.
# as §1, §2
# (§6) Criteria: TGF-b1 should be promoter of Collagen I and Fibronectin synthesis. Statistical analysis were performed on Collagen I data (n=5/assay) or Fibronectin data (n=5/assay). Results obtained with molecules were compared to negative control. All data were ng/10^E6 cells. A Student t test for non paired values was used; significativity was obtained if p<0.05 or p<0.01.
# (§7) The percents in the tables above were calculated from ng/10E6 data and compared to the negative control.
# [3] = tested on: Normal Human Dermal Fibroblasts (NHDF); assay: Quantification of Fibronectin synthesis using human dermal fibroblasts (ELISA commercial kit); conditions: 3 days of incubation
# Protocol: as §3, §4, §5, §1, §2, §6, §7
compound,measurement,setting,value
CCCCCCCCCCCCCCCC(=O)N[C@@H](CCCCN)C(=O)N[C@@H](CO)C(=O)O [Pal KS],toxicity on the cell layer,[1]; 4 ppm,seemed to induce a light toxicity
"Pal KTTKS: Palmitoyl Lys-Thr-Thr-Lys-Ser, considered as a benchmark (Palmitoyl-KTTKS)","COLLAGEN I Mean, percent of negative control",[2]; 2 ppm,+5%
same,"COLLAGEN I Mean, percent of negative control",[2]; 4 ppm,+49%
same,"COLLAGEN I Mean, percent of negative control","[2]; 4 ppm, listed as Pal-KTTKS",+49%
same,"COLLAGEN I Mean, percent of negative control",[2]; 6 ppm,+111%
same,"COLLAGEN I Mean, percent of negative control","[2]; 6 ppm, listed as Pal-KTTKS",+111%
same,"COLLAGEN I Mean, percent of negative control",[2]; 8 ppm,+144%
same,"COLLAGEN I Mean, percent of negative control","[2]; 8 ppm, listed as Pal-KTTKS",+144%
same,"FIBRONECTIN Mean, percent of negative control",[3]; 2 ppm,+20%
same,"FIBRONECTIN Mean, percent of negative control","[3]; 2 ppm, listed as Pal KTRKS",probably active
same,cell proliferation / number of cells,[1],unchanged
Pal-Lys-Thr-OH [Pal KT],"COLLAGEN I Mean, percent of negative control",[2]; 1 ppm,+21%
TGF-beta: positive control for collagen I and Fibronectin studies,"COLLAGEN I Mean, percent of negative control",[2]; 10 ppb,+95%
same,"COLLAGEN I Mean, percent of negative control","[2]; 10 ppb, listed as TGF-b1",95%
same,"FIBRONECTIN Mean, percent of negative control",[3]; 10 ppb,+69%
same,"FIBRONECTIN Mean, percent of negative control","[3]; 10 ppb, listed as TGF-b1",69%
same,cell proliferation / number of cells,[1],significant increase of cell proliferation
